Assay results reported in patent US20200256877A1, “Microbiota Sequence Variants Of Tumor-Related Antigenic Epitopes” (ENTEROME S.A., priority 2017, published 2020).

Key:
HLA-A*0201 = molecular target: T1, HLA-A*0201 (Homo sapiens, UniProt P04439, D140Y/D185E/D98H/E176V/E277Q/G131W/G231S/I119V/I121R/I166T/I218V/L300P/L318F/N151K/N90K/P208A/P217A/Q86G/Q94H/R138H/R169H/T345S); test: In vitro affinity of peptides to HLA-A*0201 on T2 cell line (FACS, anti-HLA-A2 labeling); type: cell-based; details: T2 cells; for Mean fluorescence intensity: 16 hours
T1 construct: human tumoral cell T2 which expresses the HLA-A*0201 molecule; endogenous in cells; host or cells: T2 cells (human, TAP1/2 negative)
Text: A method for in vitro testing is well-known to the skilled person. For example, the skilled person may use the experimental protocol as validated for peptides presented by HLA-A*0201 in Tourdot et al., A general strategy to enhance immunogenicity of low-affinity HLA-A2.1-associated peptides: implication in the identification of cryptic tumor epitopes. Eur J Immunol. 2000 December; 30(12):3411-21. In this context, a reference peptide, such as HIV pol 589-597, may be additionally used in the test. This enables calculation of the in vitro affinity relative to the binding observed with the reference peptide, e.g. by the following equation:
Relative affinity=concentration of each peptide inducing 20% of expression of HLA-A*0201/concentration of the reference peptide inducing 20% of expression of HLA-A*0201
(where 100% is the level of HLA-A*0201 expression detected with the reference peptide, e.g. HIV pol 589-597, for example used at a 100 μM concentration).
The experimental protocol is similar to the one that was validated for peptides presented by the HLA-A*0201 (Tourdot et al., A general strategy to enhance immunogenicity of low-affinity HLA-A2.1-associated peptides: implication in the identification of cryptic tumor epitopes. Eur J Immunol. 2000 December; 30(12):3411-21). Affinity measurement of the peptides is achieved with the human tumoral cell T2 which expresses the HLA-A*0201 molecule, but which is TAP1/2 negative and incapable of presenting endogenous peptides.
(§1) T2 cells (2.10^5 cells per well) were incubated with decreasing concentrations of peptides from 100 μM to 0.1 μM in a AIMV medium supplemented with 100 ng/μl of human β2m at 37° C. for 16 hours. Cells were then washed two times and marked with the anti-HLA-A2 antibody coupled to PE (clone BB7.2, BD Pharmagen).
The analysis was performed by FACS (Guava Easy Cyte). For each peptide concentration, the geometric mean of the labeling associated with the peptide of interest was subtracted from background noise and reported as a percentage of the geometric mean of the […] labeling obtained for the reference peptide HIV pol 589-597 at a concentration of 100 μM. The relative affinity is then determined as follows:
relative affinity=concentration of each peptide inducing 20% of expression of HLA-A*0201/concentration of the reference peptide inducing 20% of expression of HLA-A*0201.
The experimental protocol, materials and methods correspond to those outlined in Example 4, with the only difference that the above mentioned antigenic peptides were used.
as §1, with “β2 m” for “β2m”

[1] = test system: splenocytes (IFNγ secretion); test: ELISPOT-IFNγ on splenocytes of BALB/c and C57BL/6 mice vaccinated with murine microbiota peptides (Example 16); type: in vivo, mouse; details: for T cell responses in the ELISPOT-IFNγ assay (in words): C57BL/6 mice (H2 Db B2) or BALB/c mice (H2 Ld B5), vaccination + OVA 323-339 + IFA, ex vivo stimulation with bacterial peptide; for T cell responses in the ELISPOT-IFNγ assay against the murine reference epitopes (in words): ex vivo stimulation with H2 Db M2 (C57BL/6) or H2 Ld M5 (BALB/c)
Procedure: Briefly, BALB/c mice and C57BL/6 mice were assigned randomly to two experimental groups for each mouse strain, each group immunized with a specific vaccination peptide (vacc-pAg) combined to a common helper peptide (OVA 323-339 peptide; sequence: ISQAVHAAHAEINEAGR; SEQ ID NO: 164) and Incomplete Freund's Adjuvant (IFA) as shown in Table 23.
(§2) The animals were immunized on day 0 (d0) with a prime injection, and on d14 with a boost injection. Each mouse was injected s.c. at tail base with 100 μL of an oil-based emulsion that contained: • 100 μg of vacc-pAg (25 μL of 4 mg/mL stock per mouse); • 150 μg of h-pAg (15 μL of 10 mg/mL stock per mouse); • 10 μL of PBS to reach a total volume of 50 μL (per mouse); • Incomplete Freund's Adjuvant (IFA) added at 1:1 (v:v) ratio (50 μL per mouse).
Seven days after the boost injection (i.e. on d21), the animals were euthanized and the spleen was harvested. Splenocytes were prepared by mechanical disruption of the organ followed by 70 μm-filtering and Ficoll density gradient purification. Spleen weight, splenocyte number and viability were immediately assessed (Table 24).
The splenocytes were used in an ELISPOT-IFNγ assay (Table X). Experimental conditions were repeated in quadruplets, using 2*10^5 total splenocytes per well, and were cultured in presence of vacc-pAg (10 μM), mice peptide homolog, positive control (1 ng/ml of Phorbol 12-myristate 13-acetate (PMA) and 500 ng/ml of Ionomycin) or medium-only to assess for their capacity to secrete IFNγ.
The commercial ELISPOT-IFNγ kit (Diaclone Kit Mujrine IFNγ ELISpot) was used following the manufacturer's instructions, and the assay was performed after about 16 h of incubation.
Spots were counted on a Grand ImmunoSpor S6 Ultimate UV Image Analyzer interfaced to the ImmunoSpot 5.4 software (CTL-Europe). Data plotting and statistical analysis were performed with the Prism-5 software (GraphPad Software Inc.).

[2] = test system: splenocytes (IFNγ secretion); test: ELISPOT-IFNγ on splenocytes of β/A2/DR3 mice vaccinated with IL13RA2 peptides (Example 6); type: in vivo, mouse; details: for Percentage of ConA-induced response (mean+/-SEM), ELISPOT-IFNγ: β/A2/DR3 mice vaccinated s.c. d0 and d14 with labelled peptide (100 μg) + HHD-DR3 helper + IFA, d21
Text: Briefly, 14 β/A2/DR3 mice were assigned randomly (based on mouse sex and age) to two experimental groups, each immunized with a specific vaccination peptide (vacc-pAg) combined to a common helper peptide (h-pAg) (as outlined in Table 7 below). The vacc-pAg were compared in couples (group 1 vs. group 2). Thereby, both native and optimized versions of a single peptide were compared in each wave.
as §2
Seven days after the boost injection (i.e. on d21), the animals were euthanized and the spleen was harvested. Splenocytes were prepared by mechanical disruption of the organ followed by 70 μm-filtering and Ficoll density gradient purification.
The splenocytes were immediately used in an ELISPOT-IFNγ assay (Table 8). Experimental conditions were repeated in quadruplets, using 2*10^5 total splenocytes per well, and were cultured in presence of vacc-pAg (10 μM), Concanavalin A (ConA, 2.5 μg/mL) or medium-only to assess for their capacity to secrete IFNγ. The commercial ELISPOT-IFNγ kit (Diaclone Kit Mujrine IFNγ ELISpot) was used following the manufacturer's instructions, and the assay was performed after about 16 h of incubation.
Spots were counted on a Grand ImmunoSpot® S6 Ultimate UV Image Analyzer interfaced to the ImmunoSpot 5.4 software (CTL-Europe). Data plotting and statistical analysis were performed with the Prism-5 software (GraphPad Software Inc.).
The data were then normalized as a number of specific spots (the average counts obtained in the ‘medium only’ condition being subtracted) per 10^6 total T cells.
The individual average values (obtained from the quadruplicates) were next used to plot the group average values (see FIG. 3A). As the functional capacity of T cells might vary from individual to individual, the data were also expressed as the percentage of the ConA response per individual (see FIG. 3B).

U87 cells = test: In vitro cytotoxicity of CD3+ T cells from immunized mice against U87-MG cells (Example 7); type: cell-based, human; details: CD3+ T cells of HHD/DR3 mice immunized with labelled peptide, 72 hours co-culture with U87-MG, annexin V/DAPI
Procedure: Briefly, […] T cells from mice immunized with IL13RA2-H or […] were used. These cells were obtained after sorting of splenocyte from immunized mice and were placed on top of U87 cells (tumor cells expressing IL13RA2).
In more detail, CD3^+ T cells were purified from splenocytes of HHD mice immunized with IL13RA2-H (WLPFGFILI, SEQ ID NO: 1) or IL13RA2-B (FLPFGFILV, SEQ ID NO: 18). To this end, B6 β2m^ko HHD/DR3 mice were injected s.c. at tail base with 100 μL of an oil-based emulsion containing vaccination peptide plus helper peptide plus CFA (complete Freund's adjuvant), at day 0 and day 14 as described in Example 6. On d21, i.e. seven days after the boost injection, the animals were euthanized and the spleen was harvested. Splenocytes were prepared by mechanical disruption of the organ. CD3+ purification was performed using the mouse total T cells isolation kit from Miltenyi biotec using the recommended procedure. Efficient purification of cells and viability was validated by cytometry using appropriate marker for viability, CD8, CD4, CD3, and CD45. […]
72 hours after co-culture of U87-MG cells and CD3+ T cells, all cells from the wells were harvested and specific U87-MG cell death was evaluated after immunostaining of CD45 negative cells with DAPI and fluorescent annexin V followed by cytometry analysis.

[3] = molecular target: T2, HLA-A*0201 molecule on human T2 cells (human); test: T2 cell HLA-A*0201 binding assay, flow cytometry
T2 construct: MHC class I molecule on T2 cells; also called HLA.A2.01
Procedure: T2 cells (2.10⁵ cells per well) were incubated with decreasing concentrations of peptides from 100 μM to 0.1 μM in a AIMV medium supplemented with 100 ng/μl of human β2m at 37° C. for 16 hours.
The analysis was performed by FACS (Guava Easy Cyte). […] The relative affinity is then determined as follows:

[4] = ex vivo re-stimulation with IL13RA2-B pAg 10 μM
[5] = ex vivo re-stimulation with IL13RA2-H pAg 10 μM

## LMDLSTTPL (listed as Homo sapiens) [SEQ ID NO: 59, reference compound]
HLA-A*0201
  Concentration inducing 20% of expression of the HLA-A*0201: 12.6 µM
HLA-A*0201; in vitro
  Binding to HLA-A*0201 (in words): bind
HLA-A*0201; peptide at 3 μM
  Mean fluorescence intensity: 0.9
HLA-A*0201; peptide at 25 μM
  Mean fluorescence intensity: 65.4
HLA-A*0201; peptide at 100 μM
  Mean fluorescence intensity: 77.6

## GAMLVGAVL (Sequence variant) [H2 Db B2, bacterial peptide from microbiota of C57BL/6 mice, variant of Stra6 peptide]
[1]
  T cell responses in the ELISPOT-IFNγ assay (in words): induced improved T cell responses
  T cell responses in the ELISPOT-IFNγ assay against the murine reference epitopes (in words): also induced improved T cell responses

## WLPFGFILI (listed as Homo sapiens) [SEQ ID NO: 1, reference compound]
[2]; [4]
  Percentage of ConA-induced response (mean+/-SEM), ELISPOT-IFNγ: 2.0%
[2]; [5]
  Percentage of ConA-induced response (mean+/-SEM), ELISPOT-IFNγ: 1.1%
U87 cells
  U87 cell lysis (in words): not

## KPSVFLLTL (Sequence variant) [H2 Ld B5, bacterial peptide from microbiota of BALB/c mice, variant of Phtf1 peptide]
[1]
  T cell responses in the ELISPOT-IFNγ assay (in words): induced improved T cell responses
  T cell responses in the ELISPOT-IFNγ assay against the murine reference epitopes (in words): also induced improved T cell responses

## FLPFGFILV (sequence variant) [SEQ ID NO: 18]
[2]; [4]
  Percentage of ConA-induced response (mean+/-SEM), ELISPOT-IFNγ: 56.3%
[2]; [5]
  Percentage of ConA-induced response (mean+/-SEM), ELISPOT-IFNγ: 32.3%
[2]; β/A2/DR3 mice, vaccination, compared to IL13RA2-H-vaccinated animals
  T cell responses in the ELISPOT-IFNγ assay (in words): induced improved T cell responses
U87 cells
  U87 cell lysis (in words): U87 cell lysis was observed

B1: bacterial peptide IL13RA2-B (SEQ ID NO: 18, FLPFGFILV) (peptide)
peptide: FLPFGFILV
notes: 9-mer synthetic peptide; also called IL13RA2-B pAg
[3]
  concentration inducing 20% of expression of HLA-A*0201: 4.4 µM

B2: bacterial peptide FOXM1-B2 (SEQ ID NO: 75, LMDLSTTEV) (peptide)
peptide: LMDLSTTEV
notes: also called FOXM1-B2 pAg
[3]
  concentration inducing 20% of expression of HLA-A*0201: 6.7 µM

B3: human FOXM1 reference epitope FOXM1-H2 (SEQ ID NO: 59, LMDLSTTPL) (peptide)
peptide: LMDLSTTPL
notes: 9-mer peptide derived from human FOXM1; also called FOXM1-H2 pAg
[3]
  concentration inducing 20% of expression of HLA-A*0201: 12.6 µM

B4: human IL13RA2 reference epitope IL13RA2-H (SEQ ID NO: 1, WLPFGFILI) (peptide)
peptide: WLPFGFILI
notes: 9-mer peptide derived from human IL13RA2; also called IL13RA2-H pAg
[3]
  concentration inducing 20% of expression of HLA-A*0201: 100 µM
